Test results as given in patent US20060051526A1, “Process for producing cellulose acylate film” (Fuji Photo Film Co., Ltd., priority 2002, published 2006).

Tests used:
Format in all cases: physicochemical
[1] = Solubility test of the additive alone in dichloromethane/methanol mixed solvent (visual, after 4 days)
[2] = Measurement of micro heat of solution (multi-purpose calorimeter MPC-110); conditions: for Degree of stabilization: Table 15; for Heat of solution ΔH0: solvent alone, 26.0° C.
Method: (2 Measurement of Micro Heat of Solution)
The heat of solution (dissolution enthalpy ΔH) of functional additives was measured as follows, using a multi-purpose calorimeter (MPC-110) manufactured by Tokyo Rikou as a micro heat of solution measuring instrument.
1. Solvent liquids and concentrated solutions were prepared beforehand in 1 L bottles.
2. Preparation of ampoule tubes
(1) Additives (powdered solid) were ground by a mortar and the granules were made uniform.
(2) A required amount (252 mg) of the additive to be measured was weighed into an ampoule tube for measurement of the micro heat of solution.
(3) The neck of the ampoule tube was heated sufficiently by a gas burner so as to seal the ampoule tube.
3. 50 g of the prepared solvent liquid or the concentrated solution was weighed into a measuring vessel. This amount was selected as an amount sufficient to immerse the ampoule tube in the solvent liquid when set in the measuring instrument.
4. The ampoule tube was set in the measuring instrument, which was equipped with an ampoule sealing mechanism, the measuring vessel was hermetically sealed with the ampoule sealing mechanism after confirming that the ampoule tube was immersed in the solvent liquid, it was placed in a constant temperature bath (26.0° C.), and stirring was started.
5. After confirming that the measuring instrument placed in the constant temperature bath had reached equilibrium temperature (about 8 to 12 hours) the ampoule tube was broken so as to mix the additive with the solvent liquid or the concentrated solution.
6. The total amount of heat generated was recorded.
7. The Joule's heat generated was measured by applying a known voltage to the measurement system for an appropriate time, and the recorded chart area for each measurement cell was calibrated using a known amount of heat.
8. The heat of solution of the sample was calculated from the Joule's heat and the measured sample area.
Shown in Table 11 are the solvent composition (wt %) and the solids composition (parts by weight) of the mother liquor when measuring the heat of solution, the type of retardation control agent sealed in the ampoule tube (Example Compounds I-(51) or I-(2)), and the results of measurement of the heat of solution.
The identification symbols of elements constituting the system are as follows: a denotes triacetylcellulose/plasticizer, b denotes triacetylcellulose, and c denotes plasticizer. For example, 2-87a denotes that the retardation control agent is the Example Compound I-(2), the solvent composition (wt %) is dichloromethane/methanol=87/13, and the solids constituting the system are triacetylcellulose and the plasticizer.
The heat of solution ΔH0 denotes the heat of solution (heat absorption) generated when there is no solid in the system (before breaking the ampoule tube) and the retardation control agent is dissolved in a solvent alone. […] The solids concentration of the system when saturation starts is defined as the saturation heat of solution solids concentration (wt %).
In all cases, when the solids concentration of the system is increased, the heat of solution either remains unchanged from that at a solids concentration of 0 wt % (the saturation heat of solution solids concentration is 0) or decreases and becomes saturated. […] This degree of stabilization is expressed as ΔH0−ΔHs, which is the decrease in the heat of solution.

[3] = Solubility test of the additive alone in dichloromethane/methanol mixed solvent (visual, after 4 days); conditions: for Solubility S0 (solids weight concentration at the dissolution limit): CH2Cl2/CH3OH 87/13
Method: The solubility of the functional additives was measured as follows.
1. Solutions were prepared by adjusting each concentration in a 50 cc screw cap bottle.
2. Allowed to stand at room temperature for 4 days. Here, the results of the solubility changed between 1 day and 4 days in some cases, and evaluation of the solubility was carried out after 4 days as a time when equilibrium was reached.
3. Samples were prepared in the same manner at other temperatures (20° C., 35° C.), and the solubility after allowing to stand for 4 days was visually inspected.
Predetermined amounts of Example Compounds I-(51) and I-(2) were weighed into a mixed solvent of dichloromethane and methanol, and the solubility was measured by changing the mixing ratio of the organic solvents.
The solubility (solids weight concentration at the dissolution limit was calculated as (C1+C2)/2 when the concentration limit at which it could be dissolved was C1 and the concentration limit at which it could not be dissolved was C2) of the retardation control agent in a mixed solvent having an initial methylene chloride/methanol composition ratio of 87/13 was defined as S0, and the solubility of the retardation control agent when the solvent composition changed, during drying, to 74/26 where the methanol wt % was the maximum was defined as S1. The temperature at which the solubility was measured is denoted by the figure in brackets.

[4] = initial 87/13 vs 74/26, at any of 25° C., 20° C., 35° C.
[5] = 87/13, solids a: triacetylcellulose/plasticizer
[6] = 87/13, solids b: triacetylcellulose only
[7] = 87/13, solids c: plasticizer only

- Difference S0 − S1 ([1]; 20° C., 87/13 vs 74/26): 15 wt %
- Difference S0 − S1 ([1]; 20° C., 92/8 vs 91/9): 0 wt %
- Ratio S1/S0 ([1]; 20° C., 92/8 vs 91/9): 1.000
- Solubility S1 (solids weight concentration at the dissolution limit) ([1]; 20° C., CH2Cl2/CH3OH 74/26): 12.5 wt %
- Solubility S1 (solids weight concentration at the dissolution limit) ([1]; 20° C., CH2Cl2/CH3OH 91/9): 27.5 wt %
- Solubility S0 (solids weight concentration at the dissolution limit) ([1]; 20° C., CH2Cl2/CH3OH 92/8): 27.5 wt %
- Difference S0 − S1 ([1]; 25° C., 87/13 vs 74/26): 20 wt %
- Difference S0 − S1 ([1]; 25° C., 92/8 vs 91/9): 0 wt %
- Ratio S1/S0 ([1]; 25° C., 92/8 vs 91/9): 1.000
- Solubility S1 (solids weight concentration at the dissolution limit) ([1]; 25° C., CH2Cl2/CH3OH 74/26): 17.5 wt %
- Solubility S0 (solids weight concentration at the dissolution limit) ([1]; 25° C., CH2Cl2/CH3OH 87/13): 37.5 wt %
- Solubility S1 (solids weight concentration at the dissolution limit) ([1]; 25° C., CH2Cl2/CH3OH 91/9): 37.5 wt %
- Solubility S0 (solids weight concentration at the dissolution limit) ([1]; 25° C., CH2Cl2/CH3OH 92/8): 37.5 wt %
- Difference S0 − S1 ([1]; 35° C., 92/8 vs 91/9): 0 wt %
- Ratio S1/S0 ([1]; 35° C., 92/8 vs 91/9): 1.000
- Solubility S1 (solids weight concentration at the dissolution limit) ([1]; 35° C., CH2Cl2/CH3OH 91/9): 27.5 wt %
- Solubility S0 (solids weight concentration at the dissolution limit) ([1]; 35° C., CH2Cl2/CH3OH 92/8): 27.5 wt %
- Difference in solubility S0−S1 [1, 4]: ≥ 15 wt %
- Ratio S1/S0 of the solubility [1, 4]: less than 0.5
- Degree of stabilization (ΔH0 − ΔHs) ([2]; 50/50, solids a): 0 kcal/mol
- Saturation heat of solution solids concentration ([2]; 50/50, solids a): 0 wt %
- Heat of solution ΔHs ([2]; 50/50, solids a: triacetylcellulose/plasticizer): 4.25 kcal/mol
- Degree of stabilization (ΔH0 − ΔHs) ([2]; 74/26, solids a): 0 kcal/mol
- Saturation heat of solution solids concentration ([2]; 74/26, solids a): 0 wt %
- Heat of solution ΔHs ([2]; 74/26, solids a: triacetylcellulose/plasticizer): 4.56 kcal/mol
- Degree of stabilization (ΔH0 − ΔHs) [2, 5]: 0.5 kcal/mol
- Saturation heat of solution solids concentration [2, 5]: 5 wt %
- Heat of solution ΔHs ([2]; 87/13, solids a: triacetylcellulose/plasticizer (TPP/BDP)): 4.35 kcal/mol
- Degree of stabilization (ΔH0 − ΔHs) [2, 6]: 0.6 kcal/mol
- Heat of solution ΔHs [2, 6]: 4.25 kcal/mol
- Saturation heat of solution solids concentration [2, 6]: 5 wt %
- Degree of stabilization (ΔH0 − ΔHs) [2, 7]: 0 kcal/mol
- Heat of solution ΔHs [2, 7]: 4.85 kcal/mol
- Saturation heat of solution solids concentration [2, 7]: 0 wt %
- Degree of stabilization (ΔH0 − ΔHs) ([2]; 92/8, solids a): 0.8 kcal/mol
- Saturation heat of solution solids concentration ([2]; 92/8, solids a): 7 wt %
- Heat of solution ΔHs ([2]; 92/8, solids a: triacetylcellulose/plasticizer): 4.23 kcal/mol
- Degree of stabilization (ΔH0 − ΔHs) ([2]; 100/0, solids a): 1.48 kcal/mol
- Saturation heat of solution solids concentration ([2]; 100/0, solids a): 10 wt %
- Heat of solution ΔHs ([2]; 100/0, solids a: triacetylcellulose/plasticizer): 3.79 kcal/mol
- Degree of stabilization ([2]; dope Table 12, solvent composition 87/13): 0.50 kcal/mol
- Degree of stabilization ([2]; dope Table 13, solvent composition 92/8): 0.80 kcal/mol
- Degree of stabilization ([2]; dope Table 14, solvent composition 74/26): 0 kcal/mol
- Stabilization by solids in the system (in words) ([2]; case c: only the plasticizer present in the system): not stabilized
- Heat of solution ΔH0 ([2]; dichloromethane/methanol 50/50 wt %): 4.25 kcal/mol
- Heat of solution ΔH0 ([2]; dichloromethane/methanol 74/26 wt %): 4.56 kcal/mol
- Heat of solution ΔH0 ([2]; dichloromethane/methanol 87/13 wt %): 4.85 kcal/mol
- Heat of solution ΔH0 ([2]; dichloromethane/methanol 92/8 wt %): 5.03 kcal/mol
- Heat of solution ΔH0 ([2]; dichloromethane/methanol 100/0 wt %): 5.27 kcal/mol
- Ratio S1/S0 ([3]; 20° C., 87/13 vs 74/26): 0.455
- Solubility S0 (solids weight concentration at the dissolution limit) ([3]; 20° C.): 27.5 wt %
- Ratio S1/S0 ([3]; 25° C., 87/13 vs 74/26): 0.467
- Difference S0 − S1 ([3]; 35° C., 87/13 vs 74/26): 15 wt %
- Ratio S1/S0 ([3]; 35° C., 87/13 vs 74/26): 0.455
- Solubility S1 (solids weight concentration at the dissolution limit) ([3]; 35° C., CH2Cl2/CH3OH 74/26): 12.5 wt %
- Solubility S0 (solids weight concentration at the dissolution limit) ([3]; 35° C.): 27.5 wt %
SMILES: Cc1cccc(Nc2nc(Nc3cccc(C)c3)nc(Nc3cccc(C)c3)n2)c1 [Example Compound I-(51)]
